Legend:
[1] = Inhibition of wild type EGFR in human HepG2 cells assessed as cell growth inhibition measured after 72 hrs by Celltiter-Glo luminescent cell viability assay
[2] = Inhibition of wild type EGFR in human MCF7 cells assessed as cell growth inhibition measured after 72 hrs by Celltiter-Glo luminescent cell viability assay
[3] = Inhibition of wild type EGFR in human A-431 cells assessed as cell growth inhibition measured after 72 hrs by Celltiter-Glo luminescent cell viability assay
[4] = Inhibition of wild type EGFR in human HT-29 cells assessed as cell growth inhibition measured after 72 hrs by Celltiter-Glo luminescent cell viability assay

For `C=CCSSCCC(=O)OCCCOc1cc2ncnc(Nc3cccc(Br)c3)c2cc1OC`, the IC50 [1] was > 10 µM, the IC50 [2] was 7.31 µM and the IC50 [3] was 6.7 µM. For the same compound, the IC50 [4] was > 10 µM.

Reference: BindingDB's records for doi:10.1016/j.ejmech.2020.112522 (Xuzhou Medical University, 2020)
